In the NIST ThermoML archive (doi:10.1021/je900404r):

Assays:
[1] = xn = mol fraction of the nth substance listed; conditions: 101 kPa, Liquid, Vibrating tube method
[2] = 101 kPa, Liquid, Vibrating tube method

CC(Cl)(Cl)Cl [1,1,1-trichloroethane] + O=C1CCCCC1
mass density [kg/m3], [1]
Conditions	x1 = 0.1151	x1 = 0.2288	x1 = 0.3155	x1 = 0.4163	x1 = 0.5167	x1 = 0.6059	x1 = 0.7081	x1 = 0.8062	x1 = 0.8979	x1 = 1
288.15 K	996.74	1041.75	1076.19	1116.3	1156.17	1191.52	1231.85	1270.3	1305.81	1344.95
298.15 K	987.13	1031.43	1065.28	1104.68	1143.81	1178.45	1217.94	1255.52	1290.16	1328.27
308.15 K	977.49	1021.06	1054.33	1093.01	1131.39	1165.33	1203.95	1240.64	1274.41	1311.45
318.15 K	967.81	1010.65	1043.33	1081.28	1118.9	1152.12	1189.86	1225.64	1258.51	1294.47

ClCCCl [1,2-dichloroethane] + O=C1CCCCC1
mass density [kg/m3], [1]
Conditions	x1 = 0.1142	x1 = 0.2318	x1 = 0.3197	x1 = 0.4227	x1 = 0.519	x1 = 0.6155	x1 = 0.7061	x1 = 0.8134	x1 = 0.9145	x1 = 1
288.15 K	978.81	1008.61	1032.1	1061.02	1089.5	1119.7	1149.67	1187.43	1225.5	1260.01
298.15 K	969.5	998.88	1022	1050.47	1078.46	1108.12	1137.52	1174.53	1211.76	1245.48
308.15 K	960.16	989.1	1011.86	1039.86	1067.36	1096.48	1125.3	1161.53	1197.92	1230.83
318.15 K	950.78	979.28	1001.67	1029.19	1056.19	1084.75	1112.98	1148.42	1183.96	1216.04

CC(Cl)(Cl)Cl [1,1,1-trichloroethane]
[2]
Conditions	mass density [kg/m3]
288.15 K	1344.95
298.15 K	1328.27
308.15 K	1311.45
318.15 K	1294.47

ClCCCl [1,2-dichloroethane]
[2]
Conditions	mass density [kg/m3]
288.15 K	1260.01
298.15 K	1245.48
308.15 K	1230.83
318.15 K	1216.04

ClCCCCl [1,3-dichloropropane] + O=C1CCCCC1
mass density [kg/m3], [1]
Conditions	x1 = 0.1276	x1 = 0.227	x1 = 0.3268	x1 = 0.4189	x1 = 0.514	x1 = 0.6112	x1 = 0.7147	x1 = 0.8103	x1 = 0.8979	x1 = 1
288.15 K	979.76	1001.99	1024.79	1046.27	1068.86	1092.38	1118.03	1142.26	1164.89	1191.93
298.15 K	970.5	992.46	1014.95	1036.15	1058.41	1081.63	1106.86	1130.71	1152.99	1179.58
308.15 K	961.22	982.9	1005.09	1025.99	1047.94	1070.82	1095.64	1119.11	1141.03	1167.16
318.15 K	951.9	973.3	995.19	1015.78	1037.41	1059.94	1084.36	1107.45	1128.99	1154.67

ClCCCCl [1,3-dichloropropane]
[2]
Conditions	mass density [kg/m3]
288.15 K	1191.93
298.15 K	1179.58
308.15 K	1167.16
318.15 K	1154.67

O=C1CCCCC1 [cyclohexanone] + ClC(Cl)C(Cl)Cl
[1], x2 = 0
Conditions	mass density [kg/m3]
288.15 K	951.69
298.15 K	942.76
308.15 K	933.8
318.15 K	924.82

ClC(Cl)Cl [trichloromethane] + O=C1CCCCC1
mass density [kg/m3], [1]
Conditions	x1 = 0.1198	x1 = 0.2362	x1 = 0.305	x1 = 0.4235	x1 = 0.5103	x1 = 0.6047	x1 = 0.6953	x1 = 0.8109	x1 = 0.9089	x1 = 1
288.15 K	1004.15	1058.19	1091.64	1151.88	1198.22	1250.45	1303.06	1372.1	1433.35	1491.86
298.15 K	994.58	1047.93	1080.94	1140.29	1185.89	1237.16	1288.8	1356.3	1416.12	1473.16
308.15 K	984.97	1037.61	1070.16	1128.62	1173.48	1223.78	1274.42	1340.36	1398.68	1454.07
318.15 K	975.32	1027.25	1059.32	1116.88	1160.97	1210.28	1259.9	1324.23	1381.01	1434.72

CCCCCl [1-chlorobutane]
[2]
Conditions	mass density [kg/m3]
288.15 K	892.1
298.15 K	881.05
308.15 K	869.86
318.15 K	858.52

O=C1CCCCC1 [cyclohexanone] + ClCCCl
[1], x2 = 0
Conditions	mass density [kg/m3]
288.15 K	951.69
298.15 K	942.76
308.15 K	933.8
318.15 K	924.82

O=C1CCCCC1 [cyclohexanone] + CC(Cl)(Cl)Cl
[1], x2 = 0
Conditions	mass density [kg/m3]
288.15 K	951.69
298.15 K	942.76
308.15 K	933.8
318.15 K	924.82

ClC(Cl)C(Cl)Cl [1,1,2,2-tetrachloroethane]
[2]
Conditions	mass density [kg/m3]
288.15 K	1604.75
298.15 K	1589.18
308.15 K	1573.57
318.15 K	1557.94

O=C1CCCCC1 [cyclohexanone] + ClCCCCCl
[1], x2 = 0
Conditions	mass density [kg/m3]
288.15 K	951.69
298.15 K	942.76
308.15 K	933.8
318.15 K	924.82

ClC(Cl)Cl [trichloromethane]
[2]
Conditions	mass density [kg/m3]
288.15 K	1491.86
298.15 K	1473.16
308.15 K	1454.07
318.15 K	1434.72

O=C1CCCCC1 [cyclohexanone] + ClC(Cl)Cl
[1], x2 = 0
Conditions	mass density [kg/m3]
288.15 K	951.69
298.15 K	942.76
308.15 K	933.8
318.15 K	924.82

ClCCCCCl [1,4-dichlorobutane]
[2]
Conditions	mass density [kg/m3]
288.15 K	1143.49
298.15 K	1132.57
308.15 K	1121.61
318.15 K	1110.61

O=C1CCCCC1 [cyclohexanone] + ClCCCCl
[1], x2 = 0
Conditions	mass density [kg/m3]
288.15 K	951.69
298.15 K	942.76
308.15 K	933.8
318.15 K	924.82

CCCCCl [1-chlorobutane] + O=C1CCCCC1
mass density [kg/m3], [1]
Conditions	x1 = 0.1152	x1 = 0.2084	x1 = 0.3068	x1 = 0.4067	x1 = 0.5041	x1 = 0.5841	x1 = 0.692	x1 = 0.7881	x1 = 0.882	x1 = 1
288.15 K	945.58	940.43	934.95	929.27	923.6	918.86	912.28	906.18	900.11	892.1
298.15 K	936.47	931.18	925.51	919.65	913.78	908.86	902.02	895.71	889.37	881.05
308.15 K	927.34	921.88	916.03	909.97	903.89	898.78	891.68	885.12	878.54	869.86
318.15 K	918.17	912.54	906.5	900.22	893.92	888.63	881.25	874.42	867.57	858.52

O=C1CCCCC1 [cyclohexanone]
[2]
Conditions	mass density [kg/m3]
288.15 K	951.69
298.15 K	942.76
308.15 K	933.8
318.15 K	924.82

O=C1CCCCC1 [cyclohexanone] + CCCCCl
[1], x2 = 0
Conditions	mass density [kg/m3]
288.15 K	951.69
298.15 K	942.76
308.15 K	933.8
318.15 K	924.82

ClC(Cl)C(Cl)Cl [1,1,2,2-tetrachloroethane] + O=C1CCCCC1
mass density [kg/m3], [1]
Conditions	x1 = 0.1147	x1 = 0.2121	x1 = 0.3045	x1 = 0.4052	x1 = 0.4996	x1 = 0.5909	x1 = 0.6868	x1 = 0.782	x1 = 0.8798	x1 = 1
288.15 K	1029.34	1094.87	1156.78	1223.8	1286.07	1345.8	1407.73	1468.5	1530.11	1604.75
298.15 K	1019.79	1084.77	1146.13	1212.52	1274.18	1333.31	1394.58	1454.64	1515.52	1589.18
308.15 K	1010.2	1074.62	1135.43	1201.2	1262.26	1320.77	1381.38	1440.76	1500.89	1573.57
318.15 K	1000.58	1064.44	1124.7	1189.84	1250.3	1308.2	1368.14	1426.83	1486.23	1557.94

ClCCCCCl [1,4-dichlorobutane] + O=C1CCCCC1
mass density [kg/m3], [1]
Conditions	x1 = 0.1063	x1 = 0.1969	x1 = 0.2901	x1 = 0.3808	x1 = 0.4803	x1 = 0.5814	x1 = 0.6763	x1 = 0.7751	x1 = 0.8849	x1 = 1
288.15 K	973.11	991.09	1009.39	1027.04	1046.24	1065.55	1083.46	1101.96	1122.33	1143.49
298.15 K	964	981.82	999.94	1017.42	1036.41	1055.52	1073.23	1091.52	1111.66	1132.57
308.15 K	954.86	972.51	990.46	1007.76	1026.55	1045.46	1062.97	1081.05	1100.96	1121.61
318.15 K	945.69	963.17	980.95	998.07	1016.66	1035.37	1052.68	1070.54	1090.21	1110.61
